Data from publication PMC6010079, “Inhibition of dengue virus replication by novel inhibitors of RNA-dependent RNA polymerase and protease activities” (Journal of Enzyme Inhibition and Medicinal Chemistry, 2017).
Several values for one entry are separate records, joined by “and”; a condition that tells them apart may be missing. Equal values may be shown once. Read-outs that look alike come from different tables or passages of the source.

Legend:
[1] = test system: DENV-2; assay: Anti-DENV RNA activity: RT-qPCR of DENV RNA in DENV-2-infected Huh-7 cells; assay type: cell-based, DENV-2 (DENV type-2 strain 16681); conditions: for SI (selectivity index, CC50/EC50 ratio): CC50 in Huh-7 / EC50 DENV-2 RNA
Protocol: Huh-7 cells were seeded in 24-well plate and infected DENV at an MOI of 0.2 for 2 h and followed by test compound treatment at concentration of 0, 1, 5, 10, 25, 50 and 100 µM for 3 days. The total cellular RNA was harvested by RNA extraction kit[32] following manufacturer’s instrument. DENV RNA and cellular mRNA levels were determined by quantitative real-time reverse-transcription polymerase chain reaction (RT-qPCR) with specific primers. The DENV RNA level was normalised by cellular glyceraldehydes-3-phosphate dehydrogenase (GAPDH) mRNA level. The relative DENV RNA level was calculated by StepOne™ Software v2.2.2 (Applied Biosystems, Foster City, CA, USA) following normalisation of cellular glyceraldehydes-3-phosphate dehydrogenase (GAPDH) mRNA level. The zero dose was defined as 100%. The EC50 values were calculated from non-linear regression curve fitting using GraphPad Prism7 software (San Diego, CA, USA). Results were obtained from three independent experiments.

[2] = Cell cytotoxicity assay (MTS); assay type: cell-based; conditions: human, Huh-7 cells, 3 days incubation, read-out: CC50 (half maximal cytotoxicity concentration)
Protocol: The Huh-7 cells were seeded in 96-well and treated with test compound at concentration of 0, 10, 25, 50, 100, 150 and 200 µM. After 3 days incubation, the cell viability was determined by CellTiter 96 AQueous One Solution Cell Proliferation Assay (MTS assay) as previously reported. Briefly, the MTS assay buffer was added to the cultured plate following removal of the culture medium. After 2 h of incubation at 37 °C, the absorbance at 492 nm was measured. The cell viability was calculated from non-linear regression curve fitting using GraphPad Prism7. The zero dose was defined as 100%. Results were obtained from three independent experiments.

[3] = target: T1, DENV-2 NS5 RdRp (Dengue virus type 2, UniProt P29990); assay: Cell-based RdRp reporter assay (p(+)RLuc-(–)DV-UTRΔC-FLuc + pcDNA-NS5-Myc in Huh-7 cells); conditions: 3 days treatment
T1 sequence (P29990 2492-3391): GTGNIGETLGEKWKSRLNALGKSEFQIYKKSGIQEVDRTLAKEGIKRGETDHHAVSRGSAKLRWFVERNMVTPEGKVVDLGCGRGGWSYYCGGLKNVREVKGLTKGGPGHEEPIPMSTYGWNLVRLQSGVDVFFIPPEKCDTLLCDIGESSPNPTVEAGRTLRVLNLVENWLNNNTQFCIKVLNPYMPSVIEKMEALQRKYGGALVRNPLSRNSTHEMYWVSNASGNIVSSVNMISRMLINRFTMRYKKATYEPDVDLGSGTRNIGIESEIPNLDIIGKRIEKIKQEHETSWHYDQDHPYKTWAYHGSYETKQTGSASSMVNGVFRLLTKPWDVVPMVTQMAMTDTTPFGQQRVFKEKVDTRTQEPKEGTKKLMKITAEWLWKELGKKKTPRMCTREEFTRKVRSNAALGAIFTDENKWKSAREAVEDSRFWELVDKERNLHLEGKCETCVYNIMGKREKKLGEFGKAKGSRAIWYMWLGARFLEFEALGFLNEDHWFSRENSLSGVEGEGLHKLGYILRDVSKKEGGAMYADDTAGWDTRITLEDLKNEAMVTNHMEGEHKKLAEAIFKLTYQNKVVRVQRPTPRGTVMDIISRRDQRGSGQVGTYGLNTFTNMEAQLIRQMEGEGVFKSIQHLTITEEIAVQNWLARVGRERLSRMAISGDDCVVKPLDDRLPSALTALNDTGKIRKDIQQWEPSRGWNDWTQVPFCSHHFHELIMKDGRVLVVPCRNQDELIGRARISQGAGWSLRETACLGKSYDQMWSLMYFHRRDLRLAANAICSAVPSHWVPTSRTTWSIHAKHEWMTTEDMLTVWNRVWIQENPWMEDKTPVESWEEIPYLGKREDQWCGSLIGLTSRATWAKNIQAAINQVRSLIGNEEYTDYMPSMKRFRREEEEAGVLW
Protocol: (§1) The cell-based experiments were performed as previously described. Briefly, the Huh-7 cells were transfected with 0.5 µg of p(+)RLuc-(–)DV-UTRΔC-FLuc and DENV NS5 expression vector pcDNA-NS5-Myc followed by compound treatment for 3 days. The RLuc and FLuc activities were analysed by Dual-Glo Luciferase Assay System[37]. The enzyme-based fluorescence-based alkaline phosphatase-coupled polymerase assay (FAPA) was performed as previously described. Briefly, the template was amplified from the cDNA of DENV-2 minus strand 3′-UTR and its RNA was synthesised by the T7 Megascript kit[38]. The 100 nM DENV NS5 protein was incubated with 1, 5 or 10 µM test compound, 100 nM (−) 3′-UTR RNA, 20 µM CTP, GTP, UTP and 20 µM BBT-ATP (Jena Bioscience) in a total volume of 30 µL in assay buffer (50 mM Tris-HCl, pH 7.5, 10 mM KCl, 1 mM MgCl2, 0.3 mM MnCl2, 0.001% Triton X-100 and 10 µM cysteine) at 25 °C for 60 min. The 30 µL of 2.5× stop buffer (200 mM NaCl, 25 mM MgCl2, 1.5 M diethanolamine, pH 10) with 25 nM calf intestinal alkaline phosphatase (Promega) was added to the reaction after 60-min incubation. The fluorescence signal was measured at excitation wavelength of 422 nm and emission wavelength of 566 nm, respectively.

[4] = target: T1, DENV-2 NS5 RdRp; assay: Enzyme-based RdRp activity assay (FAPA); assay type: biochemical; design: the supernatant containing His-tagged DENV-2 NS5 protein; His; made in house; host or cells: Sf9 insect cells (baculovirus vAc-DENV-NS5); conditions: 100 nM DENV NS5 protein, (−) 3′UTR RNA, BBT-ATP, 25 °C, 60 min
Protocol: The DENV-2 NS5 protein purification was performed as previously described. Briefly, Sf9 cells were infected by the recombinant baculovirus vAc-DENV-NS5 at an MOI of 10 for 3 days. The cells were pelleted by centrifugation at 1000×g for 5 min at 4 °C and washed twice with phosphate-buffered saline (PBS). The cells were suspended in 5 mL of binding buffer (20 mM sodium phosphate, pH 7.5, 300 mM NaCl, 20 mM imidazole) containing protease inhibitor cocktail, and then disrupted by sonication. After centrifugation, the supernatant containing His-tagged DENV-2 NS5 protein was subjected to metal affinity chromatography employing the AKTA prime protein purification system. The eluted DENV-2 NS5 protein was concentrated by an Amicon Ultra-15 30 k centrifugal filter device[36] and then dialysed against PBS overnight at 4 °C.
as §1

[5] = test system: DENV-2; assay: Anti-DENV activity in DENV-infected ICR-suckling mouse model; assay type: in vivo; conditions: 6-day-old ICR-suckling mice; for Clinical scores and body weight (DENV-induced pathology): 2.5 × 10^5 pfu DENV-2, within 4 to 6 dpi; for Survival rate: DENV-2, compared to untreated mice
Description: Breeder ICR mice were purchased from BioLasco Taiwan Co. Ltd. The experimental protocol was approved by the Animal Research Committee of Kaohsiung Medical University of Taiwan (IACUC, protocol number 102177). All mice received humane care and fed with standard rodent chew and water ad libitum. Mice were kept under a standard laboratory condition following the Animal Use Protocol of Kaohsiung Medical University. The 6-day-old ICR-suckling mice were intracerebrally injected with DENV-2 followed by intracerebrally injecting saline or test compound at 1, 3, 5 days postinfection (dpi). […] The body weight, clinical scores and survival rate were recorded every day. The mice were sacrificed at 6 dpi.
To access the antiviral activity of compound 3 and 4in vivo, 6-day-old ICR-suckling mice were inoculated with 2.5 × 10^5 pfu of DENV-2 by intracerebral injection and then were administered with compound 3 (10 mg/kg) or 4 (1 mg/kg) by intracerebral injection at 1-, 3- and 5-day postinfection (dpi); inoculation of heat-inactivated DENV-2 (iDENV) served as a mock control.

[6] = target: T2, DENV-2 NS3 protease (Dengue virus type 2, UniProt P29990); assay: Cell-based DENV protease reporter assay (pEG(MITA)SEAP + pcDNA-NS2B-GSG-NS3-Myc in Huh-7 cells); conditions: 3 days treatment, read-out: Cell-based EC50 ± SD (DENV-2 NS3 protease)
T2 construct: DENV protease expression vector pcDNA-NS2B-GSG-NS3-Myc; expressed in transfected cells; host or cells: Huh-7
T2 sequence (P29990 1476-2093): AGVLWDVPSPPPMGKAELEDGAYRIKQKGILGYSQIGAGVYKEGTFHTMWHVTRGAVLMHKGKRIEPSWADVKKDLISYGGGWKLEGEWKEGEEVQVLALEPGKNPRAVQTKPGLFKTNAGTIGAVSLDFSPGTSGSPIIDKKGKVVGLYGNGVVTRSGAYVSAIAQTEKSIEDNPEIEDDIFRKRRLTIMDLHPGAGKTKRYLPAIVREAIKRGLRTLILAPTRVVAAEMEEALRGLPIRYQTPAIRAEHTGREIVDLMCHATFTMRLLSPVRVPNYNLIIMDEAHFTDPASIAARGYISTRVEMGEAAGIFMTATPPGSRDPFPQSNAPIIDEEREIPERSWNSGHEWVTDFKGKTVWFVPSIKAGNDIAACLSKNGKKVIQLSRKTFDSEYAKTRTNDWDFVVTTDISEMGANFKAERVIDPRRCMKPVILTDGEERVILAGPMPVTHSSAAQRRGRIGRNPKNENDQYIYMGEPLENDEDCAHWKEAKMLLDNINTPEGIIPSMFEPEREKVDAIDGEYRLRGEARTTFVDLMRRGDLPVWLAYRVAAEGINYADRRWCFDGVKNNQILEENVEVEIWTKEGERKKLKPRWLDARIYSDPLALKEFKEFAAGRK
Protocol: (§2) For cell-based activity assay, the Huh-7 cells were cotransfected with 0.5 µg of pEG(MITA)SEAP reporter vector and DENV protease expression vector pcDNA-NS2B-GSG-NS3-Myc followed by compound treatment for 3 days. The SEAP activity was analysed by Phospha-Light SEAP Reporter Gene Assay System[40]. The enzyme-based experiment was performed as previously described. Briefly, the 7-amino-4-methylcoumarin (AMC) fluorophore-linked peptide substrate Boc-GRR-AMC[41] and purified DENV NS2B/NS3pro protein were used to analyse DENV NS2B/NS3 protease activity. The 100 nM DENV NS2B/NS3pro protein was incubated with 1, 5 or 10 µM tested compound and 10 µM Boc-GRR-AMC in cleavage buffer (200 mM Tris [pH 9.5], 20% glycerol) for 30 min at 25 °C. The fluorescence signal was detected at excitation wavelength of 380 nm and emission wavelength of 465 nm, respectively.

[7] = target: T3, DENV NS2B/NS3pro protein (Dengue virus type 2, UniProt P29990); assay: Enzyme-based DENV NS2B/NS3 protease assay (Boc-GRR-AMC substrate); assay type: biochemical; conditions: Enzyme-based EC50 ± SD (DENV-2 NS3 protease), 100 nM NS2B/NS3pro, 10 µM Boc-GRR-AMC, 30 min, 25 °C
T3 construct: made in house; host or cells: Escherichia coli BL21 (DE3)
T3 sequence (P29990 1346-1475): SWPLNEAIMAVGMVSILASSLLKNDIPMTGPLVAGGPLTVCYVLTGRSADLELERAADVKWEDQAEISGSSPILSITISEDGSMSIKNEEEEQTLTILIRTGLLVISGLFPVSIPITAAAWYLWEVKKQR
T3 sequence (P29990 1476-1653): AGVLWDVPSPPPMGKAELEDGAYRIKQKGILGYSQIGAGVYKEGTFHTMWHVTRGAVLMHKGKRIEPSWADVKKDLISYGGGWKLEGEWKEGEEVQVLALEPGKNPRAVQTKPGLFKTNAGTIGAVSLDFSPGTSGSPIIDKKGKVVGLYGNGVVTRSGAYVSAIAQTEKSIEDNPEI
Protocol: The DENV NS2B/NS3pro purification was performed as previously described. Briefly, the pET24b-NS2B-NS3pro plasmid was transformed into competent Escherichia coli BL21 (DE3) and grew in kanamycin (50 µg/mL)-containing LB at 26 °C until OD600 nm reached 0.6. The isopropyl-β-D-thiogalactopyranose was added into the bacterial culture at 0.5 mM for protein induction. After 12-h incubation, cells were collected and subjected to protein purification following previous description.
as §2

[8] = Dengue virus, DENV2, Huh-7, 72 h, Huh-7 cells infected with DENV-2 at MOI 0.2, 3 days treatment, qRT-PCR with primers targeting NS5, normalised to GAPDH, read-out: EC50 ± SD (DENV-2 RNA)
[9] = read-out: EC50 ± SD (DENV-2 RNA), Huh-7 cells infected with DENV-2 at MOI 0.2, 3 days treatment, qRT-PCR with primers targeting NS5, normalised to GAPDH
[10] = Cell-based EC50 ± SD (DENV-2 NS5 RdRp)
[11] = read-out: Enzyme-based EC50 ± SD (DENV-2 NS5 RdRp)
[12] = Huh-7 cells infected with DENV-2 at MOI 0.2, 3 days treatment, qRT-PCR with primers targeting NS5, normalised to GAPDH, read-out: EC50 ± SD (DENV-2 RNA)
[13] = 10 mg/kg intracerebral injection at 1, 3, 5 dpi
[14] = Dengue virus, DENV2, Huh-7, 72 h, read-out: EC50 ± SD (DENV-2 RNA), Huh-7 cells infected with DENV-2 at MOI 0.2, 3 days treatment, qRT-PCR with primers targeting NS5, normalised to GAPDH
[15] = 1 mg/kg intracerebral injection at 1, 3, 5 dpi

Structure (SMILES)	SI (selectivity index, CC50/EC50 ratio) [1]	EC50 [1, 8]	EC50 [1, 9]	CC50 at 3 days [2]	EC50 [3, 10]	EC50 [4, 11]	EC50 [1, 12]	EC50 ([3]; read-out: Cell-based EC50 ± SD (DENV-2 NS5 RdRp))	Clinical scores and body weight (DENV-induced pathology) [5, 13]	Survival rate [5, 13]	EC50 ([4]; Enzyme-based EC50 ± SD (DENV-2 NS5 RdRp))	EC50 [1, 14]	EC50 [6]	EC50 [7]	Clinical scores and body weight (DENV-induced pathology) [5, 15]	Survival rate [5, 15]
CCOC(=O)c1cnn(C)c1N(S(=O)(=O)c1ccc(Cl)cc1)S(=O)(=O)c1ccc(Cl)cc1 [Compound 1, Ethyl 5–(4-chloro-N-((4-chlorophenyl)sulphonyl)phenylsulphonamido)-1-methyl-1H-pyrazole-4-carboxylate]	17.7	11.1 ± 0.21 µM	11.7 ± 0.2 µM	196 µM	8.07 µM and 8.1 µM	7.78 µM and 7.8 µM	–	–	–	–	–	–	–	–	–	–
CCOC(=O)c1cnn(C)c1NS(=O)(=O)c1ccc(-n2cccc2C(=O)c2ccccc2)cc1 [Compound 2, Ethyl 5–(4-(2-benzoyl-1H-pyrrol-1-yl)phenylsulphonamido)-1-methyl-1H-pyrazole-4-carboxylate]	>26.3	7.61 ± 0.36 µM	–	> 200 µM	7.22 µM and 7.2 µM	5.34 µM and 5.3 µM	7.6 ± 0.4 µM	–	–	–	–	–	–	–	–	–
CCOC(=O)c1cnn(-c2ccccc2)c1N(S(=O)(=O)c1ccc([N+](=O)[O-])cc1)S(=O)(=O)c1ccc([N+](=O)[O-])cc1 [Compound 3, Ethyl 5–(4-nitro-N-((4-nitrophenyl)sulphonyl)phenylsulphonamido)-1-phenyl-1H-pyrazole-4-carboxylate]	>35.1	5.66 ± 0.25 µM	–	> 200 µM	–	–	5.7 ± 0.3 µM	5.99 µM and 6 µM	reduced DENV-induced pathology	significantly protected the mice	4.87 µM and 4.9 µM	–	–	–	–	–
COC(=O)c1[nH]c2ccc(Cl)cc2c1C(=O)c1cc(OC)c(O)c(OC)c1 [Compound 4, Methyl 5-chloro-3–(4-hydroxy-3,5-dimethoxybenzoyl)-1H-indole-2-carboxylate]	39.3	–	–	181 µM	–	–	–	–	–	–	–	4.6 ± 0.3 µM	6.71 µM and 6.7 µM	4.72 µM and 4.7 µM	reduced DENV-induced pathology	significantly protected the mice
COC(=O)c1[nH]c2ccc(Cl)cc2c1Cc1cc(OC)cc(OC)c1 [Compound 5, Methyl 5-chloro-3–(3,5-dimethoxybenzyl)-1H-indole-2-carboxylate]	> 27.4	–	7.3 ± 0.3 µM	> 200 µM	–	–	–	–	–	–	–	7.28 ± 0.13 µM	7.92 µM and 7.9 µM	–	–	–
